Measured values reported in the NIST ThermoML archive (doi:10.1016/j.jct.2014.07.011).
± gives the expanded uncertainty stated by the source.

Tests used:
[1] = Crystal; DTA
[2] = Molar enthalpy of transition or fusion; settings: Crystal; DSC

Normal melting temperature [1]: 208.42 ± 1.1 °C
Molar enthalpy of transition or fusion [2]: 20.8 ± 1.3 kJ/mol
SMILES: CC(=O)S[C@@H]1CC2=CC(=O)CC[C@]2(C)[C@H]2CC[C@@]3(C)[C@@H](CC[C@@]34CCC(=O)O4)[C@H]12 [spironolactone]
